Results reported in PubChem BioAssay AID1549 (Sanford-Burnham Center for Chemical Genomics, 2009).
Activity calls are given as the source filed them. How the calls were made is not given here.

Biological target: Influenza A virus M2 proton channel (A/TW/4845/1999 H1N1)
Test: M2 proton channel binding, NMR based, influenza A virus H1N1 strain (AID 1549)
Details: NMR binding screen, M2 protein

Compound	Kd
Cc1nc2ccccc2c2c1C(=O)N(N)C2=O	> 4 mM (inactive)
C=CCc1ccc2c(c1)OCO2	> 4 mM (inactive)
NC1=NC(=O)/C(=C\c2cccnc2)S1	> 4 mM (inactive)
CCOC(=O)C1CN(C)CCN1C (stereo unspecified)	> 4 mM (inactive)
O=C(O)c1ccc(CN2CCOCC2)cc1	> 4 mM (inactive)
Cc1ncc(C(=O)O)c(-c2ccccc2)n1	> 4 mM (inactive)
CC(=O)c1c(O)c(C)c(O)c2c1OC1=CC(=O)C(C(C)=O)C(=O)C12C (stereo unspecified)	> 4 mM (inactive)
CC(=O)NC(O)C(=O)c1ccccc1 (stereo unspecified)	> 4 mM (inactive)
O=C(O)CCCCC1SCC2NC(=O)NC21 (stereo unspecified)	> 4 mM (inactive)
O=C(NCc1ccco1)c1ccc(=O)[nH]c1	> 4 mM (inactive)
O=c1[nH]cc(Nc2ccccc2)c(=O)[nH]1	> 4 mM (inactive)
O=c1ccnc(Nc2ccccc2O)[nH]1	> 4 mM (inactive)
Cc1sc2nc[nH]c(=S)c2c1C	> 4 mM (inactive)
CC[C@@H]1[C@@H](O)N2C3C[C@H]1C1C(O)[C@]4(C[C@@H]12)c1ccccc1N(C)[C@@H]34 (stereo partly specified)	> 4 mM (inactive)
CN1C2CCC1CC(OC(=O)C(CO)c1ccccc1)C2 (stereo unspecified)	> 4 mM (inactive)
O=C(O)CN1CCNCC1	> 4 mM (inactive)
C[C@]12CCC3C(CC[C@H]4C[C@@H](O)CC[C@]34C)C1CCC2=O (stereo partly specified)	> 4 mM (inactive)
c1ccc(Cc2nnc3sc(-c4cccnc4)nn23)cc1	> 4 mM (inactive)
O=c1c(O)c(-c2ccccc2)oc2ccccc12	> 4 mM (inactive)
CC(=O)N1CCc2ccccc2C1CC(=O)O (stereo unspecified)	> 4 mM (inactive)
O=C(NC1CCS(=O)(=O)C1)c1cccs1 (stereo unspecified)	> 4 mM (inactive)

Compound	Kd
CCn1c(C)c(C(C)=O)c(N2CCOCC2)nc1=S	> 4 mM (inactive)
CC1(C)Cc2c(C#N)c(N)n(-c3ccccc3)c(=O)c2CO1	> 4 mM (inactive)
Cc1occc1C(=O)Nc1nccs1	> 4 mM (inactive)
COc1c(F)c(F)c(-c2csc(N)n2)c(F)c1F	> 4 mM (inactive)
c1cnc(N2CCNCC2)nc1	> 4 mM (inactive)
O=C1C2CC=CCC2C(=O)N1c1cccc(O)c1 (stereo unspecified)	> 4 mM (inactive)
Nc1cc(=O)[nH]c(=S)n1CCc1ccccc1	> 4 mM (inactive)
NC(=O)C1CCN(CC2CC=CCC2)CC1 (stereo unspecified)	> 4 mM (inactive)
O=C1CCC(=O)N1c1cccc([N+](=O)[O-])c1	> 4 mM (inactive)
O=C(O)c1cnn2ccccc12	> 4 mM (inactive)
O=c1nc(N2CCOCC2)nc2n1CCO2	> 4 mM (inactive)
COc1cc(OC)c(-c2nc3cnccc3n2C)cc1OC	> 4 mM (inactive)
NC(=O)CN1C(=O)c2cccc3cccc1c23	> 4 mM (inactive)
Cc1nn(-c2ccccc2)nc1CN	> 4 mM (inactive)
O=C(O)C1CNc2ccccc2O1 (stereo unspecified)	> 4 mM (inactive)
CN1C2C[C@H](OC(=O)[C@H](CO)c3ccccc3)C[C@H]1[C@@H](O)C2	> 4 mM (inactive)
NC(=NCCC[C@H](N)C(=O)O)NC(CCC(=O)O)C(=O)O (stereo partly specified)	> 4 mM (inactive)
Cc1cc(C)c(-c2cc(C(F)(F)F)no2)c(=O)[nH]1	> 4 mM (inactive)
O=C(Nc1ccc(N2CCCC2=O)cc1)c1cccc(F)c1	> 4 mM (inactive)
COc1cc2c(cc1OC)C1=C(C#N)CCC(=O)N1CC2	> 4 mM (inactive)
O=C(O)c1ccccc1C(=O)NCC1CCCO1 (stereo unspecified)	> 4 mM (inactive)

Compound	Kd
CC1=CC(=O)CC(C)(C)C1(O)/C=C/C(C)=C\C(=O)O (stereo unspecified)	> 4 mM (inactive)
CC(=O)Nc1ccn(Cc2c(F)cccc2Cl)n1	> 4 mM (inactive)
CCCNC(=O)CSc1nnc(C)s1	> 4 mM (inactive)
Cc1cc(C)n2nc(NCc3ccccc3)nc2n1	> 4 mM (inactive)
COc1ccc(-c2oc3cc(O[C@H]4O[C@H](CO)[C@@H](O)[C@H](O)[C@H]4O)c(OC)c(O)c3c(=O)c2OC)cc1O	> 4 mM (inactive)
CN1CCN(CC(=O)NC2CCCCC2)CC1	> 4 mM (inactive)
COc1cc2c(cc1OC)[C@@H]1C(=O)c3ccc4c(c3O[C@@H]1CO2)CC(C(C)C)O4 (stereo partly specified)	> 4 mM (inactive)
Cc1cccc(NC(=O)NC(N)=O)c1	> 4 mM (inactive)
CC1CCC(N2CCN(c3ncccn3)CC2)CC1 (stereo unspecified)	> 4 mM (inactive)
O=C(Nc1ccncc1)c1c(F)cccc1F	> 4 mM (inactive)
Cc1ccsc1/C=c1\sc2ncnn2c1=O	> 4 mM (inactive)
Cc1cc(N)n(-c2ccccc2)n1	> 4 mM (inactive)
COc1ccc(-c2cc(=O)c3c(O)cc(O[C@@H]4O[C@H](CO[C@H]5O[C@H](C)[C@@H](O)[C@H](O)[C@@H]5O)[C@@H](O)[C@H](O)[C@H]4O)cc3o2)cc1O	> 4 mM (inactive)
Cc1cc(NS(=O)(=O)Cc2ccccc2)no1	> 4 mM (inactive)
O=[N+]([O-])c1cccc2c1nnn2C(CO)OCCO (stereo unspecified)	> 4 mM (inactive)
NC(=O)C1(c2ccccc2)CCOCC1	> 4 mM (inactive)
O=C(O)C1COc2ccccc2O1 (stereo unspecified)	> 4 mM (inactive)
Cc1ccc2nc(SCC(=O)O)nc(C)c2c1	> 4 mM (inactive)
COc1ccccc1/C=C\C(=O)O	> 4 mM (inactive)
C=C1C(N)CC2CC1C2(C)C (stereo unspecified)	> 4 mM (inactive)
CC(=O)c1c(C)nc2ccccc2c1N	> 4 mM (inactive)

Compound	Kd
O=C1CSC(=Nc2ccc(Cl)cc2)N1	> 4 mM (inactive)
Cn1c([O-])c([N+](C)(C)C)c(=O)n(C)c1=O	> 4 mM (inactive)
CN1CCN(c2cc(=O)n(C)c(=O)[nH]2)CC1	> 4 mM (inactive)
O=C1CCN(c2ccccc2)N1	> 4 mM (inactive)
COc1ccccc1C(=O)NC1CCN(C)CC1	> 4 mM (inactive)
Nc1nc2n(c1C(=O)c1ccccc1)CCC2	> 4 mM (inactive)
Cc1[nH]c2ccccc2c1C(=O)CSc1ncn[nH]1	> 4 mM (inactive)
C#CCCCCCCCCCCCC(=O)CC(O)COC(C)=O (stereo unspecified)	> 4 mM (inactive)
Nc1ccccc1-n1cccn1	> 4 mM (inactive)
NCc1ccc(CN2CCOCC2)cc1	> 4 mM (inactive)
CC(C)C(C)/C=C/C(C)[C@H]1CCC2C3=CCC4CC(=O)CC[C@]4(C)C3CC[C@@]21C (stereo partly specified)	> 4 mM (inactive)
O=C(NCc1ccccc1)c1cnsn1	> 4 mM (inactive)
COC(=O)C[C@H]1C(C)(C)C(OC(C)=O)[C@]2(O)C=C3C(CC[C@]4(C)C3CC(=O)O[C@H]4c3ccoc3)C1(C)C2=O (stereo partly specified)	> 4 mM (inactive)
CS(=O)(=O)Nc1ccccc1C(=O)c1ccccc1	> 4 mM (inactive)
O=C(OC[C@H]1O[C@H](OC(=O)c2cc(O)c(O)c(OC(=O)c3cc(O)c(O)c(O)c3)c2)[C@H](OC(=O)c2cc(O)c(O)c(OC(=O)c3cc(O)c(O)c(O)c3)c2)[C@@H](OC(=O)c2cc(O)c(O)c(OC(=O)c3cc(O)c(O)c(O)c3)c2)[C@@H]1OC(=O)c1cc(O)c(O)c(OC(=O)c2cc(O)c(O)c(O)c2)c1)c1cc(O)c(O)c(OC(=O)c2cc(O)c(O)c(O)c2)c1	> 4 mM (inactive)
CNC(=S)Nc1cccc(C(=O)O)c1	> 4 mM (inactive)
Cc1csc2nc3ccccc3c(=O)n12	> 4 mM (inactive)
C/C1=C/CC(C)(C)/C=C/C/C(C)=C/CC1	> 4 mM (inactive)
